# Positions of bridges follow the written chain, without caps; N, C: chain ends. Residues, ends and D or L forms follow the SMILES beside them. No end group written: not given here.
# Experiments:
# PTmAb0011 [1] = experiment: BIAcore affinity to PTmAb0011; assay type: binding, mouse; conditions: read-out: PTmAb BIAcore KD^Rel (μM) PTmAb0011
# Excerpt: (§1) This involved a DNA sub-cloning transfer from the major coat protein (gVIIIp) filamentous phage display vector to a lower copy number minor phage coat protein (gIIIp) display vector with a random PCR step. […] Included in the tables are ranking orders and also BIAcore affinities where available.
# (§2) Thus indicating the importance of correct presentation of the peptides of the present invention to adopt a shape which closely resembles the native target in the context of the whole IgE molecule. [drawing]
# PTmAb0011 [2] = experiment: Phage display ranking of peptide ligands for PTmAb0011; assay type: binding, mouse; conditions: primary phage display biopannings (Table 7)
# Excerpt: (§3) Phage display libraries were used to map the binding sites of the monoclonal antibodies using three different phage libraries, displaying either the XCX15, XCX10 or XAX10 peptide sequence (where X is any amino acid) at the N-terminus of the phage gVIIIp. Tables 6 and 7 show the results of selecting for peptide ligands with the anti human IgE monoclonal antibodies […]. […]
# as §1
# PTmAb0005 [3] = experiment: BIAcore affinity to PTmAb0005; assay type: binding; conditions: read-out: PTmAb BIAcore KD^Rel (μM) PTmAb0005
# Excerpt: as §1, §2
# PTmAb0005 [4] = experiment: Phage display ranking of peptide ligands for PTmAb0005; assay type: binding; conditions: for Rank (ECL) PTmAb0005: primary phage display biopannings (Table 6)
# Protocol: as §3
# This was performed by introducing random mutations by PCR mutagenesis and sub-cloning into the Fuse 5 vector for minor filamentous phage protein gIIIp display. These, and other results, confirmed the importance of the amino acids within IgEC67 which aligned with the Cε2 epitope. […] Mutations in other sites had little effect on the affinity to PTmAb0005.
# as §1
compound,measurement,setting,value
CC[C@H](C)[C@H](NC(=O)[C@@H]1CSSC[C@H](NC(=O)[C@@H](N)CCCNC(=N)N)C(=O)N[C@@H](CCC(=O)O)C(=O)N[C@@H](CCC(=O)O)C(=O)N[C@@H](Cc2c[nH]c3ccccc23)C(=O)N[C@@H](CC(C)C)C(=O)N1)C(=O)N1CCC[C@H]1C(=O)N1CCC[C@H]1C(=O)N[C@@H](C)C(=O)N1CCC[C@H]1C(=O)N[C@@H](C)C(=O)N[C@@H](Cc1ccccc1)C(=O)N[C@@H](C)C(=O)N1CCC[C@H]1C(=O)N1CCC[C@H]1C(=O)O [EEC21/19] (H-RCEEWLCIPPAPAFAPP-OH; disulfide 2-7),Kd,PTmAb0011 [1],27.8 µM
same,Rank (ECL) PTmAb0011,PTmAb0011 [2],3
same,Kd,PTmAb0005 [3],14.9 µM
CC[C@H](C)[C@@H]1NC(=O)[C@H](CCSC)NC(=O)[C@H](CCC(=O)O)NC(=O)[C@H](CO)NC(=O)CNC(=O)CNC(=O)[C@H](CC(C)C)NC(=O)[C@H](Cc2c[nH]c3ccccc23)NC(=O)[C@H](C(C)C)NC(=O)[C@H](CCC(=O)O)NC(=O)[C@H](CCCNC(=N)N)NC(=O)[C@@H](NC(=O)[C@@H](N)CO)CSSC[C@@H](C(=O)N[C@@H](CCC(=O)O)C(=O)O)NC(=O)[C@H](CC(=O)O)NC(=O)[C@H](CCSC)NC1=O [EEC39/50/129] (H-SCREVWLGGSEMIMDCE-OH; disulfide 2-16),Kd,PTmAb0011 [1],2.4 µM
same,Rank (ECL) PTmAb0011,PTmAb0011 [2],1611
same,Kd,PTmAb0005 [3],> 1000 µM
CC(C)C[C@@H]1NC(=O)[C@H](CC(=O)O)NC(=O)CNC(=O)[C@H](CCC(=O)O)NC(=O)[C@H](CCCNC(=N)N)NC(=O)[C@@H]2CCCN2C(=O)[C@H](Cc2ccccc2)NC(=O)[C@H](C)NC(=O)[C@@H]2CCCN2C(=O)[C@@H](NC(=O)[C@@H](N)CO)CSSC[C@@H](C(=O)N[C@@H](C)C(=O)N2CCC[C@H]2C(=O)N2CCC[C@H]2C(=O)N[C@H](C(=O)N[C@H](C(=O)O)C(C)C)[C@@H](C)O)NC1=O [EEC131] (H-SCPAFPREGDLCAPPTV-OH; disulfide 2-12),Kd,PTmAb0011 [1],42 µM
same,Rank (ECL) PTmAb0011,PTmAb0011 [2],910
same,Kd,PTmAb0005 [3],> 1000 µM
CC[C@H](C)[C@H](NC(=O)[C@H](CCCCN)NC(=O)[C@H](CC(C)C)NC(=O)[C@H](CS)NC(=O)[C@@H](N)CCC(=O)O)C(=O)N[C@@H](CCC(=O)O)C(=O)N[C@@H](CCC(N)=O)C(=O)N[C@@H](CCC(N)=O)C(=O)N[C@@H](CS)C(=O)N[C@@H](C)C(=O)N[C@@H](CC(=O)O)C(=O)N[C@H](C(=O)N[C@H](C(=O)N[C@@H](CCC(=O)O)C(=O)N[C@H](C(=O)N1CCC[C@H]1C(=O)N[C@@H](CCCNC(=N)N)C(=O)O)[C@@H](C)CC)C(C)C)[C@@H](C)CC [IgEC42] (H-ECLKIEQQCADIVEIPR-OH),Kd,PTmAb0011 [1],> 500 µM
same,Rank (ECL) PTmAb0005,PTmAb0005 [4],15
same,Kd,PTmAb0005 [3],19.4 µM
CSCC[C@H](NC(=O)[C@@H](NC(=O)[C@H](Cc1ccccc1)NC(=O)[C@H](CCC(N)=O)NC(=O)[C@H](CCCNC(=N)N)NC(=O)[C@H](CS)NC(=O)[C@@H](N)CCC(N)=O)C(C)C)C(=O)N[C@@H](CC(N)=O)C(=O)N[C@@H](CCC(N)=O)C(=O)N[C@@H](CO)C(=O)N[C@@H](CCC(=O)O)C(=O)N[C@@H](CCCCN)C(=O)N[C@@H](CCC(=O)O)C(=O)N[C@@H](Cc1ccccc1)C(=O)NCC(=O)N[C@@H](CCC(N)=O)C(=O)N[C@@H](CS)C(=O)O [IgEC56] (H-QCRQFVMNQSEKEFGQC-OH),Kd,PTmAb0011 [1],> 1000 µM
same,Rank (ECL) PTmAb0005,PTmAb0005 [4],0
same,Kd,PTmAb0005 [3],60 µM
CC[C@H](C)[C@H](NC(=O)[C@@H]1CCCN1C(=O)[C@H](CC(C)C)NC(=O)CNC(=O)[C@H](CCCNC(=N)N)NC(=O)[C@H](CC(N)=O)NC(=O)[C@@H]1CCCN1C(=O)[C@H](CC(=O)O)NC(=O)[C@H](C)NC(=O)[C@@H]1CCCN1C(=O)[C@H](CO)NC(=O)[C@H](CC(=O)O)NC(=O)[C@H](CO)NC(=O)[C@H](CCSC)NC(=O)[C@H](CS)NC(=O)[C@@H](N)CS)C(=O)N[C@@H](Cc1c[nH]c2ccccc12)C(=O)O [IgEC66] (H-CCMSDSPADPNRGLPIW-OH),Kd,PTmAb0011 [1],> 600 µM
same,Rank (ECL) PTmAb0005,PTmAb0005 [4],0
same,Kd,PTmAb0005 [3],> 600 µM
CSCC[C@@H]1NC(=O)[C@H](Cc2ccccc2)NC(=O)[C@@H](N)CSSC[C@@H](C(=O)N2CCC[C@H]2C(=O)N[C@@H](CCCNC(=N)N)C(=O)N[C@@H](CCC(=O)O)C(=O)O)NC(=O)[C@H](CC(C)C)NC(=O)[C@H](CCC(=O)O)NC(=O)[C@H](CC(C)C)NC(=O)[C@H](CC(=O)O)NC(=O)[C@H](C)NC(=O)[C@H](CC(C)C)NC(=O)[C@H](CCC(N)=O)NC(=O)[C@H](CCCCN)NC(=O)[C@H](CC(N)=O)NC1=O [IgEC67] (H-CFMNKQLADLELCPRE-OH; disulfide 1-13),Kd,PTmAb0011 [1],4.8 µM
same,binding / affinity to PTmAb0005,"PTmAb0005 [4]; IgEC67 and its mutants, gIIIp display",highest affinity
same,Rank (ECL) PTmAb0005,PTmAb0005 [4],243
same,Kd,PTmAb0005 [3],0.1 µM
CC(C)[C@H](NC(=O)[C@H](CC(=O)O)NC(=O)[C@H](CO)NC(=O)[C@@H]1CSSC[C@H](NC(=O)[C@@H](N)CO)C(=O)N[C@@H](C)C(=O)N[C@@H](Cc2ccc(O)cc2)C(=O)N[C@@H]([C@@H](C)O)C(=O)N[C@@H](C)C(=O)N[C@@H](CCC(N)=O)C(=O)N[C@@H](CCCNC(=N)N)C(=O)N[C@@H](CCC(N)=O)C(=O)N1)C(=O)N1CCC[C@H]1C(=O)N[C@@H](CC(N)=O)C(=O)N1CCC[C@H]1C(=O)NCC(=O)O [IgEC69] (H-SCAYTAQRQCSDVPNPG-OH; disulfide 2-10),Kd,PTmAb0011 [1],6.4 µM
same,Rank (ECL) PTmAb0005,PTmAb0005 [4],11
same,Kd,PTmAb0005 [3],6.6 µM
CC[C@H](C)[C@H](NC(=O)CNC(=O)[C@@H]1CCCN1C(=O)[C@H](CCC(N)=O)NC(=O)[C@H](Cc1c[nH]cn1)NC(=O)[C@@H]1CCCN1C(=O)[C@@H](NC(=O)[C@H](CC(=O)O)NC(=O)[C@H](CO)NC(=O)[C@H](CCC(N)=O)NC(=O)[C@H](CS)NC(=O)[C@@H](N)CS)C(C)C)C(=O)N[C@@H](CC(N)=O)C(=O)N[C@@H](CC(=O)O)C(=O)N[C@@H](CC(C)C)C(=O)N[C@@H](Cc1c[nH]cn1)C(=O)N[C@H](C(=O)O)C(C)C [IgEC73] (H-CCQSDVPHQPGINDLHV-OH),Kd,PTmAb0011 [1],> 600 µM
same,Rank (ECL) PTmAb0005,PTmAb0005 [4],0
same,Kd,PTmAb0005 [3],> 600 µM
CSCC[C@H](NC(=O)[C@H](CC(N)=O)NC(=O)[C@@H](NC(=O)[C@@H](NC(=O)[C@H](CCC(N)=O)NC(=O)[C@@H](NC(=O)[C@H](CC(=O)O)NC(=O)[C@@H](NC(=O)[C@@H](NC(=O)[C@H](CS)NC(=O)[C@@H](N)CS)C(C)C)[C@@H](C)O)C(C)C)[C@@H](C)O)[C@@H](C)O)C(=O)N[C@@H](CC(=O)O)C(=O)N[C@H](C(=O)N1CCC[C@H]1C(=O)N[C@@H](C)C(=O)NCC(=O)N[C@@H](CCC(N)=O)C(=O)O)C(C)C [IgEC81] (H-CCVTDVQTTNMDVPAGQ-OH),Kd,PTmAb0011 [1],6.3 µM
same,Rank (ECL) PTmAb0005,PTmAb0005 [4],0
same,Kd,PTmAb0005 [3],78 µM
DALDERAWRARA [EEB33],Kd,PTmAb0011 [1],117 µM
same,Rank (ECL) PTmAb0011,PTmAb0011 [2],15
same,Kd,PTmAb0005 [3],> 600 µM
DCDWINPPDPPHFWKDT [EEC2/23/44/132],Kd,PTmAb0011 [1],7 µM
same,Rank (ECL) PTmAb0011,PTmAb0011 [2],33
same,Kd,PTmAb0005 [3],> 600 µM
GAMTAGQLSDLP [ESB25],Kd,PTmAb0011 [1],> 1000 µM
same,Rank (ECL) PTmAb0005,PTmAb0005 [4],0
same,Kd,PTmAb0005 [3],60 µM
KAGEQAMDMELR [ESB8],Kd,PTmAb0011 [1],> 1000 µM
same,Rank (ECL) PTmAb0005,PTmAb0005 [4],0
same,Kd,PTmAb0005 [3],257 µM
VAGGQVVDRELK [ESB10/38],Kd,PTmAb0011 [1],> 1000 µM
same,Rank (ECL) PTmAb0005,PTmAb0005 [4],0
same,Kd,PTmAb0005 [3],139 µM
